Tests used:
[1] = system: TM4SF5 gene; assay: TM4SF5 shRNA in differentiated 3T3-L1 adipocytes (oil red O staining, real-time PCR); type: cell-based, mouse
Procedure: To confirm whether the fat production was suppressed when the expression of TM4SF5 protein was suppressed in adipocytes, oil red O staining was performed.
First, mouse 3T3-L1 adipocyte progenitor cells were prepared by culturing in DMEM supplemented with 10% NBCS (Gibco, 16010159) and 1% penicillin/streptomycin. The prepared cells were distributed in a 6-well plate at the density of 1×10^5/well.
After 4 days of the distribution, when the progenitor cells were full in the wells, the cells were further cultured for 48 hours. Then, the medium was replaced with the adipocyte differentiation medium (MDI medium containing 10% FBS) supplemented with 1 μM dexamethasone, 0.5 mM IBMX (3-Isobutyl-1-methylxanthine) and 10 μg/m ? of insulin (Sigma, USA). After culturing the cells for 2 days, the medium was replaced with DMEM supplemented with 10% FBS and 10 μg/m ? of insulin. After replacing with the medium, the cells were cultured for 10 days, and then cultured using DMEM supplemented with 10% FBS and 1% penicillin/streptomycin to obtain differentiated adipocytes. The adipocytes were transfected with TM4SF5 shRNA (shTM4SF5, 5′-[…]-3′, SEQ. ID. NO: 35) using lipofectamine 3000.
Whether the expression of the fat-related gene changed when the expression of TM4SF5 gene was suppressed was confirmed by the following method. […]

[2] = system: TM4SF5 protein; assay: shTM4SF5 in hepatocytes of the liver disease model mouse, Western blotting; type: cell-based; settings: FIG. 25
From the text: First, hepatocytes were obtained from the isolated liver tissue as described above. The expressions of TM4SF5 and STAT3 proteins in the obtained hepatocytes were suppressed by transfecting the cells with shTM4SF5 or silencing STAT3 [On-Target plus SMART pool siRNA (Thermo)], and then the expression changes of laminin were confirmed by Western blotting as described above.

[3] = system: STAT3 protein; assay: Western blotting of separated liver tissue treated with laminin; type: cell-based, mouse; settings: FIG. 26B
Procedure: Particularly, a lysis buffer [50 mM Tris-HCl (pH 7.4), 1% NP40, 0.25% sodium dioxycholate, 150 mM NaCl, 1 mM EDTA], SDS (sodium dodecyl sulfate), Na3O4V and protease inhibitor cocktail (GenDepot) were added to the obtained liver tissue, which was left at 4° C. for 15 minutes to lyse the tissue. The lysate was centrifuged for 30 minutes under the conditions of 13,000 rpm and 4° C. to obtain a supernatant. The proteins present in the supernatant were quantified using BCA reagent (Thermo Scientifics). 4× sample buffer [4 ml of 100% glycerol, 2.4 ml of Tris-HCl (pH 6.8), 0.8 g of SDS, 4 mg of brominated phenol blue, 0.4 ml of β-mercaptoethanol and 3.1 ml of H2O, final volume: 10 ml] was added thereto, which was boiled at 100° C. for 5 minutes. SDS-PAGE was performed, and the proteins were transferred to a nitrocellulose membrane (Whatman). The membrane was pretreated in a solution containing 5% skim milk for 1 hour, and reacted with the antibodies against laminin (Abcam, UK), ACC1 (Cell Signalling, USA), SREBP1 precursor (Santa cruz, USA), mature SREBP1 (Santa cruz, USA), MTP (Santa cruz, USA), PPARα (Santa cruz, USA), pY^706STAT3 (Millipore, USA), STAT3 (Santa cruz, USA), α-tubulin (Sigma, USA) and TM4SF5 (J Clin Invest. 2008 April; 118(4): 1354-66) as the primary antibodies at 4° C. for 15 hours. […]

Substance | production of fat, oil red O staining ([1]; FIG. 6A) | expressions of Pparγ, CD36, Fasn, Srebp1 and Fabp1 genes ([1]; FIG. 6B) | expression of laminin protein [2] | expression level of STAT3 protein [3]
shTM4SF5: TM4SF5 shRNA, 5′-CCTGGAATGTGACGCTCTTCTCGCTGCTG-3′, SEQ. ID. NO: 35 (listed as DNA, chemistry not fully specified) | inhibited | suppressed | suppressed | –
laminin | – | – | – | not changed

Reference: patent US20210190799A1, “METHOD FOR DIAGNOSING LIVER DISEASES AND METHOD FOR SCREENING THERAPEUTIC AGENT FOR LIVER DISEASES USING CHANGES IN EXPRESSION OF TM4SF5 PROTEIN” (SEOUL NATIONAL UNIVERSITY R&DB FOUNDATION, priority 2017, published 2021)
